Measured values taken from patent US6355799B1, “Substituted benzene compounds, process for their preparation, and herbicidal and defoliant compositions containing them” (ISK Americas Incorporated, priority 1997, dated 2002).

Experiments:
Assay type in all cases: in vivo
[1] = system: upland rice (Oryza sp., var. Tebonnet, RICE); test: Pre-emerge test, crop safety; settings: rating scale 0-100, 14 days after application
In short: (§1)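 Herbicidal damage is scored 0 (none) to 100 (complete plant death) two weeks after a simulated field spray. Rates span 15–1000 g ai/ha, delivered in acetone at 187 l/ha. For post-emergence treatments, plants have 2–3 leaves and the spray carries 0.25% v/v non-ionic surfactant.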

[2] = system: field corn (Zea mays L., var. Dekalb 535, CORN); test: Pre-emerge test, crop safety; settings: rating scale 0-100, 14 days after application
In short: as §1

[3] = system: large crabgrass (Digitaria sanguinalis, DIGSA); test: Pre-emerge test, greenhouse herbicide activity screening; settings: rating scale 0-100, 14 days after application
In short: (§2)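 Compounds in acetone were track-sprayed at 187 l/ha, 15–1000 g ai/ha, onto sandy loam pots. Pre-emerge seeds were sown one day before spraying, with surface watering afterwards. Post-emerge plants were at the 2–3 leaf stage and sprayed with 0.25% v/v non-ionic surfactant. Injury was rated 0–100 at 14 days.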

[4] = system: ivyleaf morningglory (Ipomoea hederacea, IPOHE); test: as above; settings: rating scale 0-100, 14 days after application
In short: as §2

[5] = system: barnyardgrass (Echinochloa crus-galli, ECHCG); test: as above; settings: rating scale 0-100, 14 days after application
In short: as §2

[6] = system: sicklepod (Cassia obtusifolia, CASOB); test: as above; settings: rating scale 0-100, 14 days after application
In short: as §2

[7] = system: green foxtail (Setaria viridis, SETVI); test: as above; settings: rating scale 0-100, 14 days after application
In short: as §2

[8] = system: lambsquarters (Chenopodium album, CHEAL); test: as above; settings: rating scale 0-100, 14 days after application
In short: as §2

[9] = system: velvetleaf (Abutilon theophrasti, ABUTH); test: as above; settings: rating scale 0-100, 14 days after application
In short: as §2

[10] = system: johnsongrass (Sorghum halepense, SORHA); test: as above; settings: rating scale 0-100, 14 days after application
In short: as §2

[11] = system: upland rice (Oryza sp., var. Tebonnet, RICE); test: Post-emerge test, crop safety; settings: rating scale 0-100 (0 no damage, 100 complete death), 14 days after application
In short: as §2

[12] = system: field corn (Zea mays L., var. Dekalb 535, CORN); test: Post-emerge test, crop safety; settings: rating scale 0-100 (0 no damage, 100 complete death), 14 days after application
In short: as §2

[13] = system: large crabgrass (Digitaria sanguinalis, DIGSA); test: Post-emerge test, greenhouse herbicide activity screening; settings: rating scale 0-100 (0 no damage, 100 complete death), 14 days after application
In short: (§3)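 Each test used a mechanized track sprayer delivering 187 l/ha of acetone solution at 15–1000 g ai/ha. Post-emerge foliage at 2–3 leaves was treated with added 0.25% v/v non-ionic surfactant and bottom-watered only. Injury was assessed on day 14, where 100 means total kill.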

[14] = system: redroot pigweed (Amaranthus retroflexus, AMARE); test: as above; settings: rating scale 0-100 (0 no damage, 100 complete death), 14 days after application
In short: as §3

[15] = system: ivyleaf morningglory (Ipomoea hederacea, IPOHE); test: as above; settings: rating scale 0-100 (0 no damage, 100 complete death), 14 days after application
In short: as §3

[16] = system: barnyardgrass (Echinochloa crus-galli, ECHCG); test: as above; settings: rating scale 0-100 (0 no damage, 100 complete death), 14 days after application
In short: as §3

[17] = system: sicklepod (Cassia obtusifolia, CASOB); test: as above; settings: rating scale 0-100 (0 no damage, 100 complete death), 14 days after application
In short: as §3

[18] = system: green foxtail (Setaria viridis, SETVI); test: as above; settings: rating scale 0-100 (0 no damage, 100 complete death), 14 days after application
In short: as §3

[19] = system: common ragweed (Ambrosia artemisizfolia L., AMBEL); test: as above; settings: rating scale 0-100 (0 no damage, 100 complete death), 14 days after application
In short: as §3

[20] = system: lambsquarters (Chenopodium album, CHEAL); test: as above; settings: rating scale 0-100 (0 no damage, 100 complete death), 14 days after application
In short: as §3

[21] = system: velvetleaf (Abutilon theophrasti, ABUTH); test: as above; settings: rating scale 0-100 (0 no damage, 100 complete death), 14 days after application
In short: as §3

[22] = system: johnsongrass (Sorghum halepense, SORHA); test: as above; settings: rating scale 0-100 (0 no damage, 100 complete death), 14 days after application
In short: as §3

[23] = system: redroot pigweed (Amaranthus retroflexus, AMARE); test: Pre-emerge test, greenhouse herbicide activity screening; settings: rating scale 0-100, 14 days after application
In short: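 Sandy loam pots; pre-emerge: sown 1 d pre-spray, surface-watered after, then bottom-watered. Post-emerge: sown 8–21 d before, 2–3 leaf stage, + 0.25% v/v NIS, bottom-watered. Acetone, 187 l/ha track spray, 15–1000 g ai/ha. 0–100 injury score, day 14.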

COc1c(Cl)cc(F)c(-n2c(=O)cc(C(F)(F)F)n(C)c2=O)c1CC(Cl)C(=O)OCC(C)C (single isomer, unassigned) [14-15]
Pre-emerge phytotoxicity rating, crop damage RICE ([1]; 63 g ai/ha): 0
Pre-emerge phytotoxicity rating, crop damage RICE ([1]; 250 g ai/ha): 0
Pre-emerge phytotoxicity rating, crop damage CORN ([2]; 63 g ai/ha): 0
Pre-emerge phytotoxicity rating, crop damage CORN ([2]; 250 g ai/ha): 0
Pre-emerge herbicidal activity, phytotoxicity rating DIGSA ([3]; 63 g ai/ha): 70
Pre-emerge herbicidal activity, phytotoxicity rating DIGSA ([3]; 250 g ai/ha): 100
Pre-emerge herbicidal activity, phytotoxicity rating IPOHE ([4]; 63 g ai/ha): 0
Pre-emerge herbicidal activity, phytotoxicity rating IPOHE ([4]; 250 g ai/ha): 20
Pre-emerge herbicidal activity, phytotoxicity rating ECHCG ([5]; 63 g ai/ha): 0
Pre-emerge herbicidal activity, phytotoxicity rating ECHCG ([5]; 250 g ai/ha): 80
Pre-emerge herbicidal activity, phytotoxicity rating CASOB ([6]; 63 g ai/ha): 0
Pre-emerge herbicidal activity, phytotoxicity rating CASOB ([6]; 250 g ai/ha): 40
Pre-emerge herbicidal activity, phytotoxicity rating SETVI ([7]; 63 g ai/ha): 0
Pre-emerge herbicidal activity, phytotoxicity rating SETVI ([7]; 250 g ai/ha): 30
Pre-emerge herbicidal activity, phytotoxicity rating CHEAL ([8]; 63 g ai/ha): 20
Pre-emerge herbicidal activity, phytotoxicity rating CHEAL ([8]; 250 g ai/ha): 95
Pre-emerge herbicidal activity, phytotoxicity rating ABUTH ([9]; 63 g ai/ha): 50
Pre-emerge herbicidal activity, phytotoxicity rating ABUTH ([9]; 250 g ai/ha): 100
Pre-emerge herbicidal activity, phytotoxicity rating SORHA ([10]; 63 g ai/ha): 0
Pre-emerge herbicidal activity, phytotoxicity rating SORHA ([10]; 250 g ai/ha): 0
Post-emerge phytotoxicity rating RICE (crop damage) ([11]; Rate 63 g ai/ha): 0
Post-emerge phytotoxicity rating RICE (crop damage) ([11]; Rate 250 g ai/ha): 0
Post-emerge phytotoxicity rating CORN (crop damage) ([12]; Rate 63 g ai/ha): 20
Post-emerge phytotoxicity rating CORN (crop damage) ([12]; Rate 250 g ai/ha): 60
Post-emerge Herbicidal Activity, phytotoxicity rating DIGSA ([13]; Rate 63 g ai/ha): 95
Post-emerge Herbicidal Activity, phytotoxicity rating DIGSA ([13]; Rate 250 g ai/ha): 100
Post-emerge Herbicidal Activity, phytotoxicity rating AMARE ([14]; Rate 63 g ai/ha): 100
Post-emerge Herbicidal Activity, phytotoxicity rating AMARE ([14]; Rate 250 g ai/ha): 100
Post-emerge Herbicidal Activity, phytotoxicity rating IPOHE ([15]; Rate 63 g ai/ha): 50
Post-emerge Herbicidal Activity, phytotoxicity rating IPOHE ([15]; Rate 250 g ai/ha): 90
Post-emerge Herbicidal Activity, phytotoxicity rating ECHCG ([16]; Rate 63 g ai/ha): 100
Post-emerge Herbicidal Activity, phytotoxicity rating ECHCG ([16]; Rate 250 g ai/ha): 100
Post-emerge Herbicidal Activity, phytotoxicity rating CASOB ([17]; Rate 63 g ai/ha): 0
Post-emerge Herbicidal Activity, phytotoxicity rating CASOB ([17]; Rate 250 g ai/ha): 50
Post-emerge Herbicidal Activity, phytotoxicity rating SETVI ([18]; Rate 63 g ai/ha): 70
Post-emerge Herbicidal Activity, phytotoxicity rating SETVI ([18]; Rate 250 g ai/ha): 80
Post-emerge Herbicidal Activity, phytotoxicity rating AMBEL ([19]; Rate 63 g ai/ha): 20
Post-emerge Herbicidal Activity, phytotoxicity rating AMBEL ([19]; Rate 250 g ai/ha): 100
Post-emerge Herbicidal Activity, phytotoxicity rating CHEAL ([20]; Rate 63 g ai/ha): 50
Post-emerge Herbicidal Activity, phytotoxicity rating CHEAL ([20]; Rate 250 g ai/ha): 100
Post-emerge Herbicidal Activity, phytotoxicity rating ABUTH ([21]; Rate 63 g ai/ha): 60
Post-emerge Herbicidal Activity, phytotoxicity rating ABUTH ([21]; Rate 250 g ai/ha): 90
Post-emerge Herbicidal Activity, phytotoxicity rating SORHA ([22]; Rate 63 g ai/ha): 50
Post-emerge Herbicidal Activity, phytotoxicity rating SORHA ([22]; Rate 250 g ai/ha): 40
Pre-emerge herbicidal activity, phytotoxicity rating AMARE ([23]; 63 g ai/ha): 100
Pre-emerge herbicidal activity, phytotoxicity rating AMARE ([23]; 250 g ai/ha): 100
